The results in this text go back to patent US20220251109A1, “OXAAZAQUINAZOLINE-7(8H)-KETONE COMPOUND, PREPARATION METHOD THEREFOR AND PHARMACEUTICAL APPLICATION THEREOF” (GENFLEET THERAPEUTICS (SHANGHAI) INC., priority 2019, published 2022).

Each structure is given as a SMILES string. Some results are limits rather than exact numbers.

Format in all cases: cell-based, human
Test [1] deals with NCI-H358 cells (Kras G12C mutation). As to the kind of experiment: Cell proliferation inhibition experiment, 3D model, CellTiter-Glo (NCI-H358). As to conditions: NCI-H358, 3D sphere plate, 5 days, 2% FBS. The method, boiled down:
(§1)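 Luminescent ATP read-out (CellTiter-Glo) after 5-day compound treatment gave % inhibition relative to DMSO control and medium blank, fitted four-parameter for IC50. Spheroids were formed overnight in 2% FBS medium from 800 H358 or 400 A549 cells per well; dilutions were 3.16-fold, final DMSO 0.1%.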
For orientation: In ATP-based viability assays light output follows the ATP content of the culture.

The subject of test [2] is p-ERK in MIA PaCa2 cells (Kras G12C mutation). As to the kind of experiment: Cell p-ERK detection experiment (HTRF) in MIA PaCa2 cells. Particulars: compound 2 hours. On the procedure: MIA PaCa2 was a human pancreatic cancer cell line with Kras G12C mutation, cultured in 10% FBS+2.5% Horse serum DMEM medium. The cells in the logarithmic growth phase were taken, digested with enzyme EDTA, collected, counted and 2.5E4 cells were seeded in a 96-well cell culture plate, cultured overnight. DMSO was used to prepare 1000× compound 3.16-fold gradient concentration stock solution, and medium was used to dilute 200-fold to 5× compound stock solution. On the second day after cell seeding, 5× compound stock solution was added to each cell culture well, the final concentration was 1×, and DMSO content was 0.1%. DMSO was used as an experimental control (control). After the compound was added and cultured for two hours, the remaining medium was removed. 50 ul cell lysis buffer was added to each well, mixed and incubated for 30 minutes, then 16 ul of the mixture was transferred to a 96-well plate with a non-transparent white bottom, and 16 ul cell lysis buffer was added to blank wells. After the completion of the transfer, 4 ul p-ERK HTRF antibody mixture was added to each well, incubated for 4 hours and the fluorescence value was read. The compound inhibition rate IR (%)=(RLU control-RLU compound)/(RLU control-RLU blank)×100% was calculated, Prism 8 four-parameter method was used to fit the compound's gradient dilution concentration and the corresponding cell proliferation inhibition rate, and the IC50 value was calculate.
(In general: TR-FRET usually uses a lanthanide donor and a delayed reading to cut background.)

In test [3] the test system is A549 cells (Kras G12S mutation). As to the kind of experiment: Cell proliferation inhibition experiment, 3D model, CellTiter-Glo (A549). Particulars: A549, 3D sphere plate, 5 days, 2% FBS. The method, boiled down:
as §1

In test [4] the test system is MIA PaCa-2 cells (Kras G12C mutation). As to the kind of experiment: Cell proliferation inhibition experiment, 3D model, CellTiter-Glo (MIA PaCa-2). As to conditions: Homo sapiens, MIA PaCa-2, 120 h, MIA PaCa-2, 3D sphere plate, 5 days; read-out: MIA-PaCa2 IC50. On the procedure:
MIA PaCa2 was a human pancreatic cancer cell line with Kras G12C mutation, cultured in 10% FBS+2.5% Horse serum DMEM medium; A549 was a human lung adenocarcinoma cell line with Kras G12S mutation, cultured in 10% FBS F-12K medium. The cells in the logarithmic growth phase were taken, digested with enzyme EDTA, collected, counted and 200 MIA PaCa-2 or 400 A549 cells were seeded in a 384-well sphere plate respectively, cultured overnight to establish a 3D cell model. DMSO was used to prepare 1000× compound 3.16-fold gradient concentration stock solution, and medium was used to dilute 100-fold to 10× compound stock solution. On the second day after cell seeding, 10× compound stock solution was added to each cell culture well, the final concentration was 1×, and DMSO content was 0.1%. DMSO was used as an experimental control (control), medium as the blank control (blank). After the compound and cells were added and cultured for 5 days, 30 μl CellTiter-Glo working solution was added to each well, mixed and incubated for 30 minutes. After 30 minutes at room temperature, 40 μl of the mixture was transferred to a 384-well plate with a non-transparent white bottom, the luminescence chemiluminescence value was read, and the cells proliferation inhibition rate IR (%)=(RLU control-RLU compound)/(RLU control-RLU blank)×100% was calculated, XLFit four-parameter method was used to fit the compound's gradient dilution concentration and the corresponding cell proliferation inhibition rate, and the IC50 value was calculate.

The IC50 is the concentration that inhibits the measured activity by half. For `C=CC(=O)N1CCN2c3nc(=O)n(-c4c(C)ccnc4C(C)C)c4nc(-c5cccc(F)c5F)c(Cl)c(c34)OC[C@@H]2C1` (atropisomer, axis not shown) [Compound Z47-2], the figures for the IC50 in test [1], in test [2] and in test [3] were 42 nM, 314 nM and more than 10000 nM, respectively.

As to `C=CC(=O)N1CCN2c3nc(=O)n(-c4c(C)ccnc4C(C)C)c4nc(-c5c(O)cccc5F)c(F)c(c34)OC[C@H]2C1` (atropisomer, axis not shown) [Compound Z73-1], the IC50 was 9 nM in test [1], 116 nM in test [2] and more than 10000 nM in test [3].

As for `C=CC(=O)N1CCN2c3nc(=O)n(-c4c(C)ccnc4C(C)C)c4nc(-c5cccc(Cl)c5F)c(Cl)c(c34)OC[C@H]2C1` (atropisomer, axis not shown) [Compound Z91-1], the figures for the IC50 in test [1], in test [2] and in test [3] were 30 nM, 93 nM and 10100 nM, respectively.

Turning to `C=CC(=O)N1CCN2c3nc(=O)n(-c4nccnc4C(C)C)c4nc(-c5ccccc5F)c(Cl)c(c34)OC[C@H]2C1` (atropisomer, axis not shown) [Compound Z104-2], the half-inhibitory concentration (IC50) in test [1] is 28 nM; in test [2], 185 nM; in test [3] it was more than 10000 nM.

As for `C=CC(=O)N1CCN2c3nc(=O)n(-c4nccnc4C(C)C)c4nc(-c5c(O)cccc5F)c(Cl)c(c34)OC[C@H]2C1` (atropisomer, axis not shown) [Compound Z105-1], the IC50 is 38 nM in test [1]; 395 nM in test [2]; more than 30000 nM in test [3] (Homo sapiens, A549, 120 h).

Consider `C=CC(=O)N1CCN2c3nc(=O)n(-c4nccnc4C(C)C)c4nc(-c5c(O)cccc5F)c(F)c(c34)OC[C@H]2C1` (atropisomer, axis not shown) [Compound Z107-1], for which the IC50 in test [1] was 19 nM; in test [2], 226 nM; in test [3] (Homo sapiens, A549, 120 h), more than 30000 nM.

With `C=CC(=O)N1CCN2c3nc(=O)n(-c4c(C)ccnc4C(C)C)c4nc(-c5c(O)cccc5F)c(Cl)c(c34)OC[C@@H]2C1` (single isomer, unassigned) [Compound Z24-1], the IC50 in test [1] is 16 nM; in test [2] it was 53 nM; in test [3], more than 10000 nM.

In the case of `C=CC(=O)N1CCN2c3nc(=O)n(-c4c(C)ccnc4C(C)C)c4nc(-c5cccc(C(F)(F)F)c5F)c(Cl)c(c34)OC[C@@H]2C1` (single isomer, unassigned) [Compound Z57-2], the IC50 is 3 nM in test [1]; 27 nM in test [2] (Homo sapiens, MIA PaCa-2, 2 h); more than 10000 nM in test [3].

In the case of `C=CC(=O)N1CCN2c3nc(=O)n(-c4c(C)ccnc4C(C)C)c4nc(-c5ccc(F)cc5F)c(Cl)c(c34)OC[C@H]2C1` (single isomer, unassigned) [Compound Z76-1], the IC50 was 40 nM in test [1]; 109 nM in test [2]; more than 10000 nM in test [3] (Homo sapiens, A549, 120 h).

Take `C=CC(=O)N1CCN2c3nc(=O)n(-c4c(C)ccnc4C(C)C)c4nc(-c5cccc(F)c5F)c(Cl)c(c34)OC[C@H]2C1` (single isomer, unassigned) [Compound Z77-1]: the IC50 in test [1] is 26 nM; in test [2] it was 58 nM; in test [3] (Homo sapiens, A549, 120 h), more than 10000 nM.

Regarding `C=CC(=O)N1CCN2c3nc(=O)n(-c4c(C)ccnc4C(C)C)c4nc(-c5cccc(Cl)c5F)c(Cl)c(c34)OC[C@@H]2C1` (single isomer, unassigned) [Compound Z82-1], the IC50 in test [1] was 23 nM; in test [2] it was 407 nM; in test [3], 3560 nM.

With `C=CC(=O)N1CCN2c3nc(=O)n(-c4c(C)ccnc4C(C)C)c4nc(-c5cccc(Cl)c5F)c(Cl)c(c34)OC[C@@H]2C1` (single isomer, unassigned) [Compound Z82-2], the IC50 in test [1] was found to be 2 nM; in test [2] it was 23 nM; in test [3], 8300 nM.

On to `C=CC(=O)N1CCN2c3nc(=O)n(-c4c(C)ccnc4C(C)C)c4nc(-c5c(F)cccc5OC)c(Cl)c(c34)OC[C@H]2C1` (single isomer, unassigned) [Compound Z83-1], for which the 50% inhibitory concentration (IC50) in test [1] came out at 1 nM; in test [2], 9 nM; in test [3] (Homo sapiens, A549, 120 h), 12100 nM.

Take `C=CC(=O)N1CCN2c3nc(=O)n(-c4c(C)ccnc4C(C)C)c4nc(-c5c(F)cccc5OC)c(Cl)c(c34)OC[C@H]2C1` (single isomer, unassigned) [Compound Z83-2]: the IC50 in test [1] came to 15 nM; in test [2], 67 nM; in test [3] it was 9770 nM.

Regarding `C=CC(=O)N1CCN2c3nc(=O)n(-c4c(C)ccnc4C(C)C)c4nc(-c5ccccc5F)c(Cl)c(c34)OC[C@H]2C1` (single isomer, unassigned) [Compound Z87-1], the IC50 was found to be 47 nM in test [1]; 158 nM in test [2]; 10200 nM in test [3] (Homo sapiens, A549, 120 h).

As for `C=CC(=O)N1CCN2c3nc(=O)n(-c4c(C)ncnc4C(C)C)c4nc(-c5c(O)cccc5F)c(Cl)c(c34)OC[C@H]2C1` (single isomer, unassigned) [Compound Z88-1], the IC50 is 100 nM in test [1]; 356 nM in test [2]; more than 10000 nM in test [3] (Homo sapiens, A549, 120 h).

In the case of `C=CC(=O)N1CCN2c3nc(=O)n(-c4c(C)ccnc4C(C)C)c4nc(-c5c(F)ccc(Cl)c5O)c(Cl)c(c34)OC[C@@H]2C1` [Compound Z52, (5 aS)-7-acryloyl-3-chloro-2-(3-chloro-6-fluoro-2-hydroxyphenyl)-12-(2-isopropyl-4-methylpyridin-3-yl)-5,5a,6,7,8,9-hexahydro-4-oxo-1,7,9a,10,12-pentazabenzo[4,5]cyclohepta[1,2,3-de]naphthalen-11 (12H)-one], the IC50 in test [4] was 23 nM; in test [1] (Homo sapiens, NCI-H358, 120 h), 4 nM; in test [3] (Homo sapiens, A549, 120 h) it was more than 10000 nM.

`C=CC(=O)N1CCN2c3nc(=O)n(-c4c(C)ccnc4C(C)C)c4nc(-c5cc(F)ccc5O)c(Cl)c(c34)OC[C@@H]2C1` [Compound Z55]: the IC50 is 26 nM in test [4]; 9 nM in test [1] (Homo sapiens, NCI-H358, 120 h); more than 10000 nM in test [3] (Homo sapiens, A549, 120 h).

For `C=CC(=O)N1CCN2c3nc(=O)n(-c4c(C)ccnc4C(C)C)c4nc(-c5cccc(C(F)(F)F)c5F)c(Cl)c(c34)OC[C@@H]2C1` [Compound Z57], the IC50 in test [4] was 22 nM; in test [1], 5 nM; in test [3] (Homo sapiens, A549, 120 h) it was more than 10000 nM.

Regarding `C=CC(=O)N1CCN2c3nc(=O)n(-c4c(C)ccnc4C(C)C)c4nc(-c5cc(Cl)ccc5F)c(Cl)c(c34)OC[C@@H]2C1` [Compound Z59], the IC50 in test [4] is 26 nM; in test [1] (Homo sapiens, NCI-H358, 120 h), 6 nM; in test [3] (Homo sapiens, A549, 120 h), more than 10000 nM.

Regarding `C=CC(=O)N1CCN2c3nc(=O)n(-c4c(C)ccnc4C(C)C)c4nc(-c5ccccc5OC(F)(F)F)c(Cl)c(c34)OC[C@@H]2C1` [Compound Z64], the half-maximal inhibitory concentration (IC50) in test [4] is 9 nM; in test [1] (Homo sapiens, NCI-H358, 120 h), 7 nM; in test [3] (Homo sapiens, A549, 120 h), more than 10000 nM.

Consider `C=CC(=O)N1CCN2c3nc(=O)n(-c4c(C)ccnc4C(C)C)c4nc(-c5c(F)cccc5F)c(Cl)c(c34)OC[C@@H]2C1` [Compound Z68], for which the IC50 was 9 nM in test [4]; 3 nM in test [1] (Homo sapiens, NCI-H358, 120 h); more than 10000 nM in test [3] (Homo sapiens, A549, 120 h).

As for `C=CC(=O)N1CCN2c3nc(=O)n(-c4c(C(C)C)ncnc4C(C)C)c4nc(-c5c(O)cccc5F)c(F)c(c34)OC[C@H]2C1` [Compound Z98], the IC50 in test [4] was 2 nM; in test [1] (Homo sapiens, NCI-H358, 120 h), 1 nM; in test [3] (Homo sapiens, A549, 120 h) it was more than 10000 nM.

As to `C=CC(=O)N1CCN2c3nc(=O)n(-c4c(C)ncnc4C4CC4)c4nc(-c5c(O)cccc5F)c(Cl)c(c34)OC[C@H]2C1` [Compound Z103], the IC50 was 18 nM in test [4]; 7 nM in test [1] (Homo sapiens, NCI-H358, 120 h); more than 30000 nM in test [3] (Homo sapiens, A549, 120 h).

For the compound `C=CC(=O)N1CCN2c3nc(=O)n(-c4c(C)ncnc4C4CC4)c4nc(-c5cccc(F)c5F)c(Cl)c(c34)OC[C@H]2C1` [Compound Z106], the IC50 in test [4] was 7 nM; in test [1] (Homo sapiens, NCI-H358, 120 h), 4 nM; in test [3] (Homo sapiens, A549, 120 h), more than 30000 nM.
